Patent US7138361B2, “Herbicidal heterocycles” (E. I. du Pont de Nemours and Company, priority 2000, dated 2006)

Legend:
Assay in all cases: Test C preemergence
Format in all cases: in vivo
Nightshade [1] = conditions: Rate 250 g/ha, visual evaluation after 12 to 14 days
[2] = tested on: cocklebur (Xanthium strumarium)
How it was run: (§1)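 Seeds are planted and treated before emergence; for the postemergence test, plants at 1- to 4-leaf stage (2–18 cm) receive the same formulation, a solvent blend containing surfactant. Plants stay in the greenhouse 12–14 days, then response is scored visually from 0 (none) to 100 (complete control).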

kochia (Kochia scoparia) = conditions: for Plant response rating (0 to 100), Kochia: Rate 250 g/ha, visual evaluation after 12 to 14 days
How it was run: as §1

[3] = tested on: giant foxtail (Setaria faberii)
How it was run: as §1

[4] = tested on: lambsquarters (Chenopodium album); conditions: for Plant response rating (0 to 100), Lambsquarters: Rate 250 g/ha, visual evaluation after 12 to 14 days
How it was run: as §1

soybean (Glycine max) = conditions: for Plant response rating (0 to 100), Soybean: Rate 250 g/ha, visual evaluation after 12 to 14 days
How it was run: as §1

[5] = tested on: velvetleaf (Abutilon theophrasti); conditions: for Plant response rating (0 to 100), Velvetleaf: Rate 250 g/ha, visual evaluation after 12 to 14 days
How it was run: as §1

[6] = tested on: woolly cupgrass (Eriochloa villosa); conditions: for Plant response rating (0 to 100), Cupgrass, Woolly: Rate 250 g/ha, visual evaluation after 12 to 14 days
How it was run: as §1

corn (Zea mays) = conditions: for Plant response rating (0 to 100), Corn: Rate 250 g/ha, visual evaluation after 12 to 14 days
How it was run: as §1

[7] = tested on: Surinam grass (Brachiaria decumbens); conditions: for Plant response rating (0 to 100), Surinam grass: Rate 250 g/ha, visual evaluation after 12 to 14 days
How it was run: as §1

[8] = tested on: goosegrass (Eleusine indica); conditions: for Plant response rating (0 to 100), Goosegrass: Rate 250 g/ha, visual evaluation after 12 to 14 days
How it was run: as §1

[9] = tested on: johnsongrass (Sorghum halepense); conditions: for Plant response rating (0 to 100), Johnsongrass: Rate 250 g/ha, visual evaluation after 12 to 14 days
How it was run: as §1

[10] = tested on: common ragweed (Ambrosia elatior); conditions: for Plant response rating (0 to 100), Ragweed, Common: Rate 250 g/ha, visual evaluation after 12 to 14 days
How it was run: as §1

Nightshade [11] = tested on: Nightshade
[12] = tested on: pigweed (Amaranthus retroflexus); conditions: for Plant response rating (0 to 100), Pigweed: Rate 250 g/ha, visual evaluation after 12 to 14 days
How it was run: as §1

Sunflower = conditions: Rate 500 g/ha, scale 0 to 100
[13] = tested on: morningglory (Ipomoea hederacea); conditions: for Plant response rating (0 to 100), Morningglory: Rate 250 g/ha, visual evaluation after 12 to 14 days
How it was run: as §1

[14] = tested on: yellow nutsedge (Cyperus esculentus); conditions: for Plant response rating (0 to 100), Nutsedge: Rate 250 g/ha, visual evaluation after 12 to 14 days
How it was run: as §1

[15] = tested on: crabgrass (Digitaria sanguinalis); conditions: for Plant response rating (0 to 100), Crabgrass: Rate 250 g/ha, visual evaluation after 12 to 14 days
How it was run: as §1

[16] = tested on: bermudagrass (Cynodon dactylon); conditions: for Plant response rating (0 to 100 where 0 is no effect and 100 is complete control), Bermudagrass: Rate 250 g/ha, visual evaluation after 12 to 14 days
How it was run: as §1

[17] = Preemergence, Rate 500 g/ha, scale 0 to 100
[18] = Rate 62 g/ha, scale 0 to 100, 0 no effect, 100 complete control
[19] = preemergence, Rate 125 g/ha, scale 0 to 100, 0 no effect, 100 complete control
[20] = Rate 125 g/ha, scale 0 to 100, 0 no effect, 100 complete control

O=C1C(n2ccc(C3CCCCC3)n2)SCN1c1cccc(C(F)(F)F)c1 (centres unmarked) [Compound 52]
0: Plant response rating, Cocklebur [2, 18] | Plant response rating, Cocklebur [2, 19] | Plant response rating, Kochia (kochia (Kochia scoparia); [18]) | Plant response rating, Lambsquarters [4, 18] | Plant response rating, Velvetleaf [5, 17] | Plant response rating (0 to 100), Velvetleaf ([5]; preemergence) | Plant response rating, Velvetleaf [5, 19] | Plant response rating, Corn (corn (Zea mays); [18]) | Plant response rating, Corn (corn (Zea mays); [19]) | Plant response rating, Surinam grass [7, 18] | Plant response rating, Johnsongrass [9, 18] | Plant response rating, Ragweed, Common [10, 19] | Plant response rating, Pigweed [12, 19] | Plant response rating (0 to 100), Morningglory ([13]; preemergence) | Plant response rating, Morningglory [13, 19] | Plant response rating, Nutsedge [14, 18] | Plant response rating, Nutsedge [14, 19]
40: Plant response rating, Corn (corn (Zea mays); [17]) | Plant response rating, Johnsongrass [9, 19] | Plant response rating (0 to 100), Ragweed, Common ([10]; preemergence) | Plant response rating, Nutsedge [14, 17]
60: Plant response rating, Kochia (kochia (Kochia scoparia); [17]) | Plant response rating, Foxtail, Giant [3, 18] | Plant response rating, Soybean (soybean (Glycine max); [17]) | Plant response rating (0 to 100), Cupgrass, Woolly ([6]; preemergence)
100: Plant response rating, Lambsquarters [4, 17] | Plant response rating (0 to 100), Lambsquarters ([4]; preemergence) | Plant response rating, Cupgrass, Woolly [6, 17] | Plant response rating, Goosegrass [8, 17] | Plant response rating (0 to 100), Goosegrass ([8]; preemergence) | Plant response rating, Johnsongrass [9, 17] | Plant response rating, Pigweed [12, 17] | Plant response rating, Crabgrass [15, 17] | Plant response rating (0 to 100), Crabgrass ([15]; preemergence) | Plant response rating, Crabgrass [15, 19] | Plant response rating, Bermudagrass [16, 17] | Plant response rating, Bermudagrass [16, 18] | Plant response rating (0 to 100 where 0 is no effect and 100 is complete control), Bermudagrass ([16]; preemergence) | Plant response rating, Bermudagrass [16, 19]
90: Plant response rating, Goosegrass [8, 18] | Plant response rating, Goosegrass [8, 19] | Plant response rating (0 to 100), Johnsongrass ([9]; preemergence) | Plant response rating, Crabgrass [15, 18]
50: Plant response rating, Cupgrass, Woolly [6, 19] | Plant response rating, Surinam grass [7, 17] | Plant response rating, Ragweed, Common [10, 17] | Plant response rating, Nightshade (Nightshade [11]; Rate 500 g/ha, scale 0 to 100) | Plant response rating, Sunflower (Sunflower)
80: Plant response rating, Lambsquarters [4, 19]
70: Plant response rating, Foxtail, Giant [3, 19]
30: Plant response rating (0 to 100), Nightshade (Nightshade [1]) | Plant response rating, Cocklebur [2, 17] | Plant response rating (0 to 100), Kochia (kochia (Kochia scoparia); preemergence) | Plant response rating, Foxtail, Giant [3, 17] | Plant response rating, Cupgrass, Woolly [6, 18] | Plant response rating (0 to 100), Surinam grass ([7]; preemergence) | Plant response rating, Nightshade (Nightshade [11]; [18]) | Plant response rating, Nightshade (Nightshade [11]; [20]) | Plant response rating (0 to 100), Pigweed ([12]; preemergence) | Plant response rating, Morningglory [13, 17]
20: Plant response rating, Kochia (kochia (Kochia scoparia); [19]) | Plant response rating (0 to 100), Soybean (soybean (Glycine max); preemergence) | Plant response rating, Soybean (soybean (Glycine max); [19]) | Plant response rating (0 to 100), Corn (corn (Zea mays); preemergence) | Plant response rating, Surinam grass [7, 19] | Plant response rating (0 to 100), Nutsedge ([14]; preemergence)

CC(C)(C)c1ccn(C2CCN(c3ccc(Cl)c(Br)c3)C2=O)n1 (centres unmarked) [Compound 56]
50: Plant response rating, Kochia (kochia (Kochia scoparia); [18]) | Plant response rating, Bermudagrass [16, 19]
30: Plant response rating, Crabgrass [15, 18] | Plant response rating, Crabgrass [15, 19]
0: Plant response rating (0 to 100), Nightshade (Nightshade [1]) | Plant response rating, Cocklebur [2, 18] | Plant response rating (0 to 100), Cocklebur ([2]; preemergence, Rate 250 g/ha, visual evaluation after 12 to 14 days) | Plant response rating, Cocklebur [2, 19] | Plant response rating, Foxtail, Giant [3, 18] | Plant response rating, Foxtail, Giant [3, 19] | Plant response rating, Soybean (soybean (Glycine max); [17]) | Plant response rating (0 to 100), Soybean (soybean (Glycine max); preemergence) | Plant response rating, Soybean (soybean (Glycine max); [19]) | Plant response rating (0 to 100), Velvetleaf ([5]; preemergence) | Plant response rating, Velvetleaf [5, 19] | Plant response rating, Cupgrass, Woolly [6, 18] | Plant response rating (0 to 100), Cupgrass, Woolly ([6]; preemergence) | Plant response rating, Cupgrass, Woolly [6, 19] | Plant response rating, Corn (corn (Zea mays); [17]) | Plant response rating, Corn (corn (Zea mays); [18]) | Plant response rating (0 to 100), Corn (corn (Zea mays); preemergence) | Plant response rating, Corn (corn (Zea mays); [19]) | Plant response rating, Surinam grass [7, 17] | Plant response rating, Surinam grass [7, 18] | Plant response rating (0 to 100), Surinam grass ([7]; preemergence) | Plant response rating, Surinam grass [7, 19] | Plant response rating, Johnsongrass [9, 17] | Plant response rating, Johnsongrass [9, 18] | Plant response rating (0 to 100), Johnsongrass ([9]; preemergence) | Plant response rating, Johnsongrass [9, 19] | Plant response rating (0 to 100), Ragweed, Common ([10]; preemergence) | Plant response rating, Ragweed, Common [10, 19] | Plant response rating, Nightshade (Nightshade [11]; [18]) | Plant response rating, Nightshade (Nightshade [11]; [20]) | Plant response rating (0 to 100), Pigweed ([12]; preemergence) | Plant response rating, Sunflower (Sunflower) | Plant response rating, Morningglory [13, 17] | Plant response rating, Morningglory [13, 18] | Plant response rating (0 to 100), Morningglory ([13]; preemergence) | Plant response rating, Morningglory [13, 19] | Plant response rating, Nutsedge [14, 17] | Plant response rating, Nutsedge [14, 18] | Plant response rating (0 to 100), Nutsedge ([14]; preemergence) | Plant response rating, Nutsedge [14, 19]
20: Plant response rating, Velvetleaf [5, 17] | Plant response rating, Ragweed, Common [10, 17] | Plant response rating, Nightshade (Nightshade [11]; Rate 500 g/ha, scale 0 to 100)
40: Plant response rating, Bermudagrass [16, 18]
100: Plant response rating, Cocklebur [2, 17] | Plant response rating, Kochia (kochia (Kochia scoparia); [17]) | Plant response rating (0 to 100), Kochia (kochia (Kochia scoparia); preemergence) | Plant response rating, Lambsquarters [4, 17] | Plant response rating, Lambsquarters [4, 18] | Plant response rating (0 to 100), Lambsquarters ([4]; preemergence) | Plant response rating, Lambsquarters [4, 19] | Plant response rating, Goosegrass [8, 17] | Plant response rating, Pigweed [12, 17] | Plant response rating, Crabgrass [15, 17] | Plant response rating, Bermudagrass [16, 17]
90: Plant response rating, Foxtail, Giant [3, 17] | Plant response rating (0 to 100), Goosegrass ([8]; preemergence) | Plant response rating, Pigweed [12, 19] | Plant response rating (0 to 100), Crabgrass ([15]; preemergence) | Plant response rating (0 to 100 where 0 is no effect and 100 is complete control), Bermudagrass ([16]; preemergence)
70: Plant response rating, Kochia (kochia (Kochia scoparia); [19]) | Plant response rating, Cupgrass, Woolly [6, 17]
80: Plant response rating, Goosegrass [8, 19]
60: Plant response rating, Goosegrass [8, 18]
